The test system of data set [1] is Raynaud phenomenon attacks. Conditions: intravenous, over 9 weeks, cited from earlier work.
Data set [2] concerns cold-induced vasoconstriction in the rabbit foot. Nature of the data set: Intra-arterial dosing in anesthetized rabbits, peripheral cooling of hind foot. It is filed as in vivo, New Zealand White rabbit. Conditions: intra-arterial 0.05 then 0.1 mg/kg; left hind foot in 40° C., then 15° C. water bath. Here is the method: A study was conducted to assess the effects of intra-arterial dosing of Compound 1 and ketanserin on body temperature, peripheral cooling and peripheral blood flow in naïve anesthetized male New Zealand White rabbits.
Formulations of each test compound were prepared by adding saline and vortexing and sonicating until a clear solution was obtained.
Rabbits were sedated with ketamine/xylazine (25/5 mg/kg, subcutaneous) and then intubated and anesthetized with 1-2% isoflurane driven by 100% oxygen (1-2 L/min). Animals were mechanically ventilated and normal body temperature (38-40° C.) was maintained using an external source of heat (e.g., circulating water blanket, heated surgery table). The femoral incision site was infiltrated with 1 mg/kg ID bupivacaine. A catheter for dosing was placed via cutdown in the left femoral artery. […]
At the start of Dose 1 administration, each rabbit's left hind foot was placed in a water bath set to maintain approximately 40° C. […] At 30 minutes post dose start of Dose 2, in Groups 4-6 only, each rabbit's left hind foot was removed to room temperature, monitored and dosed for an additional 15 minutes.
Average percent change of each temperature and blood flow between baseline and each minute of dose administration was determined relative to time-matched vehicle control data.

For data set [3], the system named is Raynaud phenomenon attacks. Conditions: intravenous; cited from earlier work.
A further data set addresses 5-HT2B receptor (Homo sapiens, UniProt P41595). Nature of the data set: Receptor affinity, 5-HT2B. The class given is binding. The source says:
(§1) M1 refers to N-(4-(2-(2-hydroxyethylamino)ethoxy)-3-(1-methyl-1H-pyrazol-5-yl)phenyl)-3-methoxybenzamide. M2 refers to N-(4-(2-aminoethoxy)-3-(1-methyl-1H-pyrazol-5-yl)phenyl)-3-methoxybenzamide.

Data set [4] concerns 5-HT-mediated amplification of platelet aggregation. In words: Phase 1 single-dose escalation study, platelet aggregation with ADP with and without 5-HT. Conditions: single oral doses above 1 mg. The class given is in vivo, human. The method, then: (§2) A phase 1, randomized, double-blind, placebo-controlled, single-dose escalation study was conducted to assess the tolerability, PK, and PD of Compound 1 doses of 1 to 320 mg administered orally as a single dose to a total of 91 healthy subjects.
(§3) PD assessment consisted of measuring pre- and post-dose platelet aggregation using an in vitro assay with ADP with and without 5-HT. The degree of thrombin receptor activating peptide (TRAP)-induced platelet aggregation inhibition between groups was similar. However, Compound 1 inhibited 5-HT-mediated amplification of platelet aggregation at doses above 1 mg.

A further data set addresses human 5-HT2A (Homo sapiens, UniProt P28223). In words: Receptor affinity, 5-HT2A. It is filed as binding.
Description: as §1

A short description of data set [5]: Phase 1 multiple-ascending dose study, pharmacokinetics. The class given is in vivo, human. Conditions: for accumulation ratio as measured by AUCtau: 60 and 80 mg Compound 1 TID, after 7 days. The method, then: (§4) A phase 1, randomized, double-blind, placebo-controlled, multiple-ascending dose-escalation study was conducted to assess the safety, tolerability, PD, and steady state PK of Compound 1 from 5 to 80 mg administered orally TID for 7 days in a total of 50 healthy subjects.

A further data set has as its target T1, 5-HT2C receptor (Homo sapiens, UniProt P28335).
T1 sequence (P28335 33-458): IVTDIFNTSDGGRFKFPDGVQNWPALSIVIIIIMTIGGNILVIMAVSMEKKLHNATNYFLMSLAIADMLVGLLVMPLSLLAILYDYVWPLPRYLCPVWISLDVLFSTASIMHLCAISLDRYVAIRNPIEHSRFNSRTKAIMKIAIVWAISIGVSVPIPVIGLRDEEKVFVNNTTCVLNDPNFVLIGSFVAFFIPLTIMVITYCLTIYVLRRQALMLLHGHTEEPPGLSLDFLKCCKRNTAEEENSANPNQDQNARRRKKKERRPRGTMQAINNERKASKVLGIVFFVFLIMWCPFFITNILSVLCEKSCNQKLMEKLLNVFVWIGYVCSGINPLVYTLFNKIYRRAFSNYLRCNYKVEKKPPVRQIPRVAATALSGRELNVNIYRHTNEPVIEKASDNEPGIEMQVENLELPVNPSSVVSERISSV
In words: Receptor affinity, 5-HT2C. The class given is binding.
Description: as §1

Data set [6] is described as follows: Phase 1 single-dose escalation study, pharmacokinetics. The class given is in vivo, human. Conditions: for half-life compared with parent compound: after single oral dose of Compound 1, healthy subjects. Here is the method: as §2
Data set [7] has as its system thrombin receptor activating peptide (TRAP)-induced platelet aggregation. In words: Phase 1 single-dose escalation study, TRAP-induced platelet aggregation. It is filed as in vivo, human. Conditions: single oral dose, versus placebo groups. The method, then: as §2, §3
Data set [8] has as its system ex vivo 5-HT-mediated amplification of platelet aggregation. Nature of the data set: Phase 1 multiple-ascending dose study, ex vivo platelet aggregation. The class given is in vivo, human. The method, then: as §4
Administration of Compound 1 inhibited ex vivo 5-HT-mediated amplification of platelet aggregation.

Here are results for six compounds from patent US20240252503A1, “METHODS OF TREATMENT” (Arena Pharmaceuticals, Inc., priority 2021, published 2024).

Chain of human 5-HT2A (P28223 whole entry): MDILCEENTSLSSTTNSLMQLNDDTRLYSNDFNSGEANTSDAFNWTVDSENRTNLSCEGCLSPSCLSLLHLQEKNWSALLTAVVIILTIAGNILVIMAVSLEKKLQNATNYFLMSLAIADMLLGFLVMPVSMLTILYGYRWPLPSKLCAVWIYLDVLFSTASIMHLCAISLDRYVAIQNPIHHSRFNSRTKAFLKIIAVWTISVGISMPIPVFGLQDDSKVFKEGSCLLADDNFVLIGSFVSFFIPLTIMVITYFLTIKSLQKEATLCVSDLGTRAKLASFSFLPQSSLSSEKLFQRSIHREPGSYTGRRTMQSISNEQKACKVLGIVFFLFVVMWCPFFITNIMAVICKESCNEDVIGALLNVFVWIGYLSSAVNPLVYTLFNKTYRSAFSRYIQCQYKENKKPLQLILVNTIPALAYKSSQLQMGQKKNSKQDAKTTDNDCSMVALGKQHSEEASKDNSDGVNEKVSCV
Chain of 5-HT2B receptor (P41595 whole entry): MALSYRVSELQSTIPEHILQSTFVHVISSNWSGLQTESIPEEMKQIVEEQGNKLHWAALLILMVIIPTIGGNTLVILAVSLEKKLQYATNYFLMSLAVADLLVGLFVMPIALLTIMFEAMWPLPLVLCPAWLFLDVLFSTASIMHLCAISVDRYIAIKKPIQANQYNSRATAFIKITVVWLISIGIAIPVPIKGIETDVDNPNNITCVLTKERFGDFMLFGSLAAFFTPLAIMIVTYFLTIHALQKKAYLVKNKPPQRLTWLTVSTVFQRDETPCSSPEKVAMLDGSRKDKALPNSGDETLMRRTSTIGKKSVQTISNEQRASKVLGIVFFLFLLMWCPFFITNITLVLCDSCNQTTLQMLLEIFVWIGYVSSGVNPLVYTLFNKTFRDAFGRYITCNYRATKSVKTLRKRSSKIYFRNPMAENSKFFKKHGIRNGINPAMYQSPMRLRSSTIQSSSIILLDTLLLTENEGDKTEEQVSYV

Consider `CC#CCC(C)[C@H](O)/C=C/[C@@H]1[C@H]2C/C(=C/CCCC(=O)O)C[C@H]2C[C@H]1O` (stereo partly drawn) [iloprost], for which the “improvement of severity score” value in data set [1] (versus 19.7% in comparator) was 34.8%. Also, the “reduction of weekly Raynaud phenomenon attacks” value in data set [1] (versus 22.2% in comparator) is listed as 39.1%.
For the compound `O=C(c1ccc(F)cc1)C1CCN(CCn2c(=O)[nH]c3ccccc3c2=O)CC1` [ketanserin, reference compound], the “effect on cold-induced vasoconstriction in the rabbit foot” value in [2] is recorded as “partially reduced”.
Turning to `CCCCC[C@H](O)/C=C/[C@@H]1[C@H]2C/C(=C/CCCC(=O)O)O[C@H]2C[C@H]1O` [epoprostenol], in data set [3], the “frequency and duration of Raynaud phenomenon attacks” value is “reduced frequency and duration of Raynaud phenomenon attacks”; the “time after the last infusion at which loss in clinical response was observed” value was 8-10 weeks.
In the case of `COc1cccc(C(=O)Nc2ccc(OCCN3CCOCC3)c(-c3ccnn3C)c2)c1` [Compound 1, 3-methoxy-N-[3-(2-methylpyrazol-3-yl)-4-(2-morpholin-4-ylethoxy)phenyl]benzamide], the “affinity for 5-HT2B receptor” value at 5-HT2B receptor is “no appreciable affinity”. The “5-HT-mediated amplification of platelet aggregation” value in data set [4] is “inhibited”. Also, the “affinity for human 5-HT2A” value on human 5-HT2A is recorded as “high affinity”. Further, the “dose proportionality of exposure as measured by AUC” value in data set [5] (5 and 10 mg TID) was “dose proportional”; in [5] (40, 60, and 80 mg TID, Day 1 and Day 7), “greater than dose proportional”. In addition, the absorption entry is “rapidly absorbed” in [5] (5 to 80 mg oral TID for 7 days, all doses) and “rapidly absorbed” in data set [6] (single oral dose 1 to 320 mg, healthy subjects, all doses). Besides, the “Cmax and AUC accumulation ratio” value in data set [5] (all doses, Day 7 compared with Day 1, TID for 7 days) was “less than 2”. For the same compound, the “affinity for 5-HT2C receptor” value at 5-HT2C receptor is “no appreciable affinity”. Besides, in data set [6] (single oral dose 1 to 320 mg), the “half-life as Compound 1 dose was escalated” value was “half-life increased”. Further, the “dose proportionality of plasma exposure measures” value in [6] (single oral dose 1 to 320 mg, healthy subjects) is “greater than dose proportional”. The “degree of TRAP-induced platelet aggregation inhibition between groups” value in data set [7] was “similar”. The “effect on cold-induced vasoconstriction in the rabbit foot” value in data set [2] was “partially reduced”. Besides, the “extent of inhibition of ex vivo 5-HT-mediated amplification of platelet aggregation” value in data set [8] (60 mg and 80 mg doses, following dosing on Days 1, 4, and 7) is on record as “essentially maximal”. Further, in data set [8] (5 to 80 mg oral TID for 7 days), the “ex vivo 5-HT-mediated amplification of platelet aggregation” value is recorded as “inhibited”.
For the compound `COc1cccc(C(=O)Nc2ccc(OCCNCCO)c(-c3ccnn3C)c2)c1` [Compound M1, N-(4-(2-(2-hydroxyethylamino)ethoxy)-3-(1-methyl-1H-pyrazol-5-yl)phenyl)-3-methoxybenzamide], the “affinity for 5-HT2B receptor” value on 5-HT2B receptor is “no appreciable affinity”. Further, the “affinity for human 5-HT2A” value at human 5-HT2A is recorded as “high affinity”. Moreover, the “accumulation ratio as measured by AUCtau” value in [5] was “approximately 2”. Besides, the “affinity for 5-HT2C receptor” value at 5-HT2C receptor is reported as “no appreciable affinity”. For the same compound, in [6], the “half-life compared with parent compound” value is recorded as “longer half-lives than the parent compound”.
For `COc1cccc(C(=O)Nc2ccc(OCCN)c(-c3ccnn3C)c2)c1` [Compound M2, N-(4-(2-aminoethoxy)-3-(1-methyl-1H-pyrazol-5-yl)phenyl)-3-methoxybenzamide], the “affinity for 5-HT2B receptor” value at 5-HT2B receptor is reported as “no appreciable affinity”. For the same compound, at human 5-HT2A, the “affinity for human 5-HT2A” value is listed as “high affinity”. In data set [5], the “accumulation ratio as measured by AUCtau” value is “approximately 2”. Besides, the “affinity for 5-HT2C receptor” value at 5-HT2C receptor is reported as “no appreciable affinity”. The “half-life compared with parent compound” value in data set [6] is given as “longer half-lives than the parent compound”.
